Marks after values point to notes of the source that are not given here.
Tests used:
[1] = from http://www.drugbank.ca/drugs/DB00482; cited from earlier work
rat liver microsomes = assay: Glucuronidation by rat liver microsomes; format: in vitro ADME; conditions: rat, 10 μM, pH 7.4
Method: (§1) FIG. 5A is a bar graph illustrating in vitro metabolism of phenolics via glucuronidation pathway. Glucuronidation rates of all the new locally bioavailable COX-2 inhibitors by rat liver microsomes. Additional metabolic rates of various locally bioavailable COX-2 inhibitors are in Table 3. […]. The incubation systems were: for glucuronidation, 0.88 mM magnesium chloride (MgCl2), 4.4 mM saccharolactone, 0.022 mg/mL alamethicin, 3.5 mM uridine 5′-diphospho-glucuronic acid (UDPGA), 10 μM substrates and different concentrations of microsomes in 50 mM potassium phosphate buffer (pH 7.4); for sulfation, 10 mM dithiothreitol (DTT), 5 mM MgCl2, 100 μM 3′-phosphoadenosine-5′-phosphosulfate (PAPS),10 μM substrate and different concentrations of S9 fractions in 50 mM potassium phosphate buffer (pH 7.4).
(§2) In vitro tools were employed to help predict the in vivo metabolism rates of the COX-2 inhibitors that are phenolics. The microsomes and S9 fractions prepared from colon or liver were used to determine the in vivo glucuronidation and sulfation rates of the phenolic compounds, respectively. By employing microsomes and S9 fractions prepared from both rats and humans, it could be determined if the results obtained in the rat model could be reasonably extrapolated to humans. In these experiments, raloxifene and genistein, two phenolic compounds which undergo extensive first-pass metabolism, were selected as controls.

rat liver S9 = assay: Sulfation by rat liver S9 fractions; format: in vitro ADME; conditions: 10 μM, pH 7.4
Method: as §1, with “FIG. 5C” for “FIG. 5A”, “via sulfonation” for “via glucuronidation”, “pathway. Sulfation” for “pathway. Glucuronidation”, “of 6a1-6a4” for “of all the new locally bioavailable COX-2 inhibitors”, “liver and colon S9 fractions.” for “liver microsomes.”, “μM 3′-phosphoadeno sine-5′-phosphosulfate” for “μM 3′-phosphoadenosine-5′-phosphosulfate”
as §2

human intestine S9 = assay: Sulfation by human intestine S9; format: in vitro ADME; conditions: 10 μM, pH 7.4
Method: as §1, with “FIG. 5D” for “FIG. 5A”, “of phenolics.” for “of phenolics via glucuronidation pathway.”, “of 6a1-6a4” for “of all the new locally bioavailable COX-2 inhibitors”, “by human” for “by rat”, “liver and intestinal” for “liver”, “Table 4.” for “Table 3.”
as §2

human liver microsomes = assay: Glucuronidation by human liver microsomes; format: in vitro ADME; conditions: human, 10 μM, pH 7.4
Method: as §1, with “FIG. 5D” for “FIG. 5A”, “of phenolics.” for “of phenolics via glucuronidation pathway.”, “of 6a1-6a4” for “of all the new locally bioavailable COX-2 inhibitors”, “by human” for “by rat”, “liver and intestinal” for “liver”, “Table 4.” for “Table 3.”
as §2

human liver S9 = assay: Sulfation by human liver S9; format: in vitro ADME; conditions: 10 μM, pH 7.4
Method: as §1, with “FIG. 5D” for “FIG. 5A”, “of phenolics.” for “of phenolics via glucuronidation pathway.”, “of 6a1-6a4” for “of all the new locally bioavailable COX-2 inhibitors”, “by human” for “by rat”, “liver and intestinal” for “liver”, “Table 4.” for “Table 3.”
as §2

[2] = system: human intestine microsomes; assay: Glucuronidation by human intestine microsomes; format: in vitro ADME; conditions: human, 10 μM, pH 7.4
Method: as §1, with “FIG. 5D” for “FIG. 5A”, “of phenolics.” for “of phenolics via glucuronidation pathway.”, “of 6a1-6a4” for “of all the new locally bioavailable COX-2 inhibitors”, “by human” for “by rat”, “liver and intestinal” for “liver”, “Table 4.” for “Table 3.”
as §2

rat colon microsomes = assay: Glucuronidation by rat colon microsomes; format: in vitro ADME; conditions: rat, 10 μM, pH 7.4
Method: as §1, with “5B” for “5A”, “glucuronidation” for “metabolism”, “in liver and colon microsomes of rats.” for “via glucuronidation pathway.”, “6a1-6a4” for “all the new locally bioavailable COX-2 inhibitors”, “and colon microsomes were measured.” for “microsomes.”, “(PAPS), 10” for “(PAPS),10”
as §2

rat colon S9 = assay: Sulfation by rat colon S9 fractions; format: in vitro ADME; conditions: 10 μM, pH 7.4
Method: as §1, with “FIG. 5C” for “FIG. 5A”, “via sulfonation” for “via glucuronidation”, “pathway. Sulfation” for “pathway. Glucuronidation”, “of 6a1-6a4” for “of all the new locally bioavailable COX-2 inhibitors”, “liver and colon S9 fractions.” for “liver microsomes.”, “μM 3′-phosphoadeno sine-5′-phosphosulfate” for “μM 3′-phosphoadenosine-5′-phosphosulfate”
as §2

Row | Compound | LogP [1] | Glucuronidation rates by liver microsomes (Mean) (rat liver microsomes) [pmol/mg/min] | Sulfation rates by liver S9 (Mean) (rat liver S9) [pmol/mg/min] | Sulfation rates by human intestine S9 (Mean) (human intestine S9) [pmol/mg/min] | Glucuronidation rates by liver microsomes (Mean) (human liver microsomes) [pmol/mg/min] | Sulfation rates by liver S9 (Mean) (human liver S9) [pmol/mg/min] | Glucuronidation rates by intestine microsomes (Mean) [2] [pmol/mg/min] | Glucuronidation rates by colon microsomes (Mean) (rat colon microsomes) [pmol/mg/min] | Sulfation rates by colon S9 (Mean) (rat colon S9) [pmol/mg/min]
1 | Cc1ccc(-c2cc(C(F)(F)F)nn2-c2ccc(S(N)(=O)=O)cc2)cc1 [Celecoxib, celecoxib] | 4.01^b |  |  |  |  |  |  |  | 
2 | O=C(c1ccc(OCCN2CCCCC2)cc1)c1c(-c2ccc(O)cc2)sc2cc(O)ccc12 [Raloxifene, reference compound] |  | 402 | 100 | 58 | 681 | 19 | 2846 | 54 | 0

— patent US11202773B2, “Locally bioavailable drugs” (UNIVERSITY OF HOUSTON SYSTEM, priority 2015, dated 2021)
